Experimental findings from ChEMBL document CHEMBL1201862, “PubChem BioAssay data set” (2004) are described below.

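Step 1: Grow cells in 96-well plates. Step 2: Expose to compound for 48 hours at 5 concentrations. Step 3: Interpolate endpoints linearly; if unreached, use highest concentration. Here, GI50 denotes the concentration required for 50% inhibition of growth.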 Activity calls are given as the source filed them. Rule as the data show it: active = GI50 up to about 1.1 µM and inactive = higher.

Holding throughout (test): inhibition of tumour cell growth, NCI panel, 48 h
Experiment [1] deals with NCI/ADR-RES.
The test system of experiment [2] is SW-620.
Experiment [3] concerns SK-MEL-28.
Experiment [4] deals with OVCAR-4.
The test system of experiment [5] is T47D.
Experiment [6] has as its system HCT-15.
The subject of experiment [7] is UO-31.
Experiment [8] has as its system HT-29.
In experiment [9] the test system is HCT-116.
The subject of experiment [10] is SK-OV-3.
Experiment [11] concerns SN12C.
Experiment [12] deals with LOX IMVI.
For experiment [13], the system named is EKVX.
Experiment [14] relates to NCI-H226.
Experiment [15] deals with ACHN.
Experiment [16] deals with A498.
In experiment [17] the test system is CCRF-CEM.
Experiment [18] deals with NCI-H522.
Experiment [19] deals with K562.
Experiment [20] relates to RXF 393.

Turning to `O=C1Oc2ccccc2C(=O)/C1=C\NC(=S)c1ccncc1`, the GI50 in experiment [1] is > 100 µM (inactive); in [2], 11 µM (inactive); in experiment [3], 45.9 µM (inactive); in [4], > 100 µM (inactive); in [5] it was > 100 µM (inactive); in [6], 69.3 µM. Further, the GI50 in experiment [7] is 45.7 µM (inactive); in [8] it was > 100 µM (inactive); in [9] it was > 100 µM (inactive); in experiment [10], > 100 µM (inactive); in experiment [11], > 100 µM (inactive); in experiment [12] it was > 100 µM (inactive). In addition, the GI50 in experiment [13] was > 100 µM (inactive); in [14] it was > 100 µM (inactive); in [15], 53.3 µM (inactive).

`O=C1CCCCC/C1=C\c1cccc(Cl)c1`: the GI50 in experiment [16] is > 100 µM (inactive); in [17] it was 4.06 µM (inactive); in [2], 20.8 µM (inactive); in [3] it was 49.4 µM (inactive); in experiment [4] it was 26.5 µM (inactive); in experiment [5] it was > 100 µM (inactive). For the same molecule, the GI50 in [18] is 39.2 µM (inactive); in [6], 32.2 µM; in experiment [7], 24.1 µM (inactive); in [8], 38.6 µM (inactive); in experiment [9], 40.2 µM (inactive); in experiment [10], > 100 µM (inactive). Also, the GI50 in [11] is 93.8 µM (inactive); in [12], 41.5 µM (inactive); in experiment [13] it was 50.9 µM (inactive); in experiment [14], 34.4 µM (inactive); in experiment [15] it was 28.2 µM (inactive).

Take `O=[N+]([O-])C(/C(Cl)=C(/Cl)N1CCOCC1)=C1\NCCO1`: the GI50 in experiment [1], in experiment [16], in experiment [17], in experiment [2], in experiment [3] and in experiment [4] was > 100 µM (inactive) throughout. For the same molecule, the GI50 in experiment [5] is > 100 µM (inactive); in experiment [6] it was over 100 µM; in experiment [7], > 100 µM (inactive); in experiment [8], > 100 µM (inactive); in [9], > 100 µM (inactive); in experiment [10], > 100 µM (inactive). In addition, the GI50 in [11], in experiment [13], in experiment [14] and in experiment [15] was > 100 µM (inactive) throughout.

For `COc1cccc(CCCNC(=O)Cc2cc(OC)c(OC)cc2CO)c1`, the GI50 in [1], in experiment [16], in experiment [17], in [2], in experiment [3] and in [4] was > 100 µM (inactive) in each case. The GI50 in experiment [5] was 39.1 µM (inactive); in experiment [6], over 100 µM; in experiment [7], > 100 µM (inactive); in experiment [8], > 100 µM (inactive); in [9], > 100 µM (inactive); in experiment [11], > 100 µM (inactive). For the same molecule, the GI50 in [19], in experiment [12], in experiment [13], in experiment [14] and in experiment [15] was > 100 µM (inactive) each time.

Consider `CC1=C(C)SC(=C2Sc3[n-]c(=O)[nH]c(=O)c3S2)S1.CCCC[N+](CCCC)(CCCC)CCCC`, for which the GI50 in experiment [1] was 95.9 µM (inactive); in experiment [16], > 100 µM (inactive); in [17] it was 40.4 µM (inactive); in experiment [2] it was > 100 µM (inactive); in [20], > 100 µM (inactive); in experiment [3] it was 39.2 µM (inactive). Moreover, the GI50 in experiment [4] was > 100 µM (inactive); in experiment [18] it was 15.1 µM (inactive); in experiment [6], over 100 µM; in experiment [7], > 100 µM (inactive); in experiment [8], > 100 µM (inactive); in experiment [9], > 100 µM (inactive). Also, the GI50 is > 100 µM (inactive) in [10]; > 100 µM (inactive) in experiment [11]; 49.4 µM (inactive) in experiment [19]; 44.6 µM (inactive) in experiment [12]; > 100 µM (inactive) in experiment [13]; > 100 µM (inactive) in [14]. Moreover, in experiment [15], the GI50 is > 100 µM (inactive).

With `CCSC1=N/C(=C\c2ccco2)C(Cl)=N1`, the GI50 in experiment [1], in experiment [16], in experiment [17], in experiment [2], in [3] and in experiment [5] was > 100 µM (inactive) throughout. Besides, the GI50 in experiment [6] was over 100 µM; in experiment [7] it was > 100 µM (inactive); in experiment [8], > 100 µM (inactive); in experiment [9] it was > 100 µM (inactive); in experiment [10], > 100 µM (inactive); in experiment [11], > 100 µM (inactive). The GI50 in experiment [19], in [12], in [13], in experiment [14] and in [15] was > 100 µM (inactive) each time.

On to `Cc1ccc(S(=O)(=O)N/N=C2/C3C(CC2(C)C)C2(C)CCCC3(C)C2O)cc1` (stereo not given), for which the GI50 is 21.2 µM (inactive) in [1]; 16.8 µM (inactive) in experiment [17]; > 10 µM (inactive) in experiment [2]; 18.9 µM (inactive) in experiment [3]; 19.1 µM (inactive) in experiment [4]; 18.2 µM (inactive) in [5]. In addition, the GI50 in experiment [18] is 19.6 µM (inactive); in experiment [6], 23.2 µM; in [7], 26.2 µM (inactive); in experiment [8] it was 20.1 µM (inactive); in experiment [9], 18.7 µM (inactive); in experiment [10], 20.9 µM (inactive). In addition, the GI50 in [11] was 19.9 µM (inactive); in experiment [19] it was 23.9 µM (inactive); in [12], 13.4 µM (inactive); in experiment [13], 45.7 µM (inactive); in experiment [14] it was 17 µM (inactive); in [15], > 10 µM (inactive).

Take `O=C1NC(c2cccc3ccccc23)Nc2ccccc21` (stereo not given): the GI50 is < 0.0199 µM (active) in experiment [1]; 0.0262 µM (active) in experiment [16]; 0.01 µM (active) in experiment [17]; 0.0277 µM (active) in [2]; 0.0302 µM (active) in experiment [20]; 0.127 µM (active) in [3]. Also, the GI50 in experiment [4] was 0.00931 µM (active); in [6], under 0.0224 µM; in [7] it was 1.05 µM (active); in [9] it was 0.0336 µM (active); in [10] it was 0.0362 µM (active); in experiment [11], 0.132 µM (active). For the same molecule, the GI50 is < 0.0212 µM (active) in [19]; 0.0906 µM (active) in experiment [12]; 0.143 µM (active) in experiment [13]; 0.0875 µM (active) in experiment [14]; 0.0708 µM (active) in experiment [15].

For `COC(=O)/C=C\COCC1C2CCC(=O)C21` (stereo not given), the GI50 in experiment [1] was 17.4 µM (inactive); in [17] it was 5.66 µM (inactive); in experiment [2], 7.93 µM (inactive); in experiment [20], 9.62 µM (inactive); in experiment [3], > 25 µM (inactive); in [4], > 25 µM (inactive). In addition, the GI50 in [18] is 3.86 µM (inactive); in [6] it was 9.57 µM; in [7], 11.6 µM (inactive); in [8] it was 6.05 µM (inactive); in [9] it was 16.3 µM (inactive); in [10] it was > 25 µM (inactive). Also, the GI50 was > 25 µM (inactive) in experiment [11]; 8.28 µM (inactive) in experiment [19]; 14.5 µM (inactive) in [12]; 9.16 µM (inactive) in experiment [13]; 18.5 µM (inactive) in [14]; 11.6 µM (inactive) in experiment [15].

Regarding `C/C(=N/OC(=O)c1cccc2c(=O)c3ccccc3[nH]c12)[C@H]1CC[C@H]2[C@@H]3CCC4=C/C(=N/OC(=O)c5cccc6c(=O)c7ccccc7[nH]c56)CC[C@]4(C)[C@H]3CC[C@]12C`, the GI50 in experiment [1] was 20.4 µM (inactive); in experiment [17], 2.4 µM (inactive); in experiment [2], 13.9 µM (inactive); in experiment [4] it was 34 µM (inactive); in experiment [5], 14.5 µM (inactive); in experiment [18], 12.3 µM (inactive). The GI50 in experiment [6] is 14 µM; in experiment [7] it was 15 µM (inactive); in experiment [8], 13.5 µM (inactive); in experiment [9], 12.5 µM (inactive); in experiment [10] it was 27 µM (inactive); in [11], 14.7 µM (inactive). Further, the GI50 in experiment [19] was 4.97 µM (inactive); in experiment [12], 12.9 µM (inactive); in [13], 10.6 µM (inactive); in experiment [14], 20 µM (inactive); in experiment [15], 16 µM (inactive).

For the molecule `CCNC1CC(C(C)(C)NCC)CC=C1C` (stereo not given), the GI50 in experiment [1], in experiment [17], in [2], in experiment [3], in experiment [4] and in experiment [5] was > 100 µM (inactive) each time. Moreover, the GI50 in experiment [18] is > 100 µM (inactive); in experiment [6], over 100 µM; in experiment [7], > 100 µM (inactive); in experiment [8], > 100 µM (inactive); in [9], > 100 µM (inactive); in experiment [10], > 100 µM (inactive). Further, the GI50 in experiment [11], in [19], in [12] and in experiment [13] was > 100 µM (inactive) each time.

Turning to `CC(C)(C)c1cc(C(=O)Nc2cc(Br)c(Br)cc2S(N)(=O)=O)cc(C(C)(C)C)c1O`, the GI50 in experiment [17] was 4.28 µM (inactive); in [2], 9.42 µM (inactive); in [20], 11.1 µM (inactive); in experiment [3], 13.4 µM (inactive); in [4], 12.1 µM (inactive); in experiment [5], 3.24 µM (inactive). For the same molecule, the GI50 in experiment [18] was 11.8 µM (inactive); in experiment [6], 3.85 µM; in experiment [7], 10.5 µM (inactive); in experiment [8], 5.01 µM (inactive); in [9], 8.24 µM (inactive); in experiment [10], 16.4 µM (inactive). The GI50 in experiment [11] was 7.24 µM (inactive); in [19], 5.71 µM (inactive); in [12] it was 6.46 µM (inactive); in [13], 12.8 µM (inactive); in experiment [14], 13.1 µM (inactive); in experiment [15] it was 11.3 µM (inactive).
